Literature values as cited in patent EP3728136B1 (Easymining Sweden AB, priority 2017, dated 2019).

Tested on: biogas-producing bacteria
Conditions: concentration of free ammonia increased to 620 mg/l; Siles et al., 2010

Question: For `N` [ammonia], which “gradual decrease of biogas production” value is on record?
Answer: The value was 21%.
